Experiment [1] has as its system Rhopalosiphum padi. The experiment in a line: Contact toxicity against Rhopalosiphum padi infested wheat plant applied as spray measured after 24 hr. The class given is functional.
Experiment [2] has as its system Rhopalosiphum padi. The experiment in a line: Toxicity against Rhopalosiphum padi infested wheat plant assessed as mortality at 1000 mg/l applied to upper plant for 1 min followed by basipetal transportation for 24 hr measured 48 hr after removal of upper plant parts relative to control. The class given is functional.
Experiment [3] deals with Rhopalosiphum padi. Description: Toxicity against Rhopalosiphum padi infested wheat plant assessed as mortality at 1000 mg/l applied to upper plant for 1 min followed by basipetal transportation for 48 hr measured 24 hr after removal of upper plant parts relative to control. The class given is functional.
The test system of experiment [4] is Rhopalosiphum padi. The experiment in a line: Toxicity against Rhopalosiphum padi infested wheat plant assessed as mortality at 1000 mg/l applied to upper plant for 1 min followed by basipetal transportation for 24 hr measured 24 hr after removal of upper plant parts relative to control. The class given is functional.
Experiment [5] deals with Rhopalosiphum padi. The experiment in a line: Toxicity against Rhopalosiphum padi infested wheat plant assessed as mortality at 1000 mg/l applied to upper plant for 1 min followed by basipetal transportation for 48 hr measured 48 hr after removal of upper plant parts relative to control. The class given is functional.
Experiment [6] relates to Rhopalosiphum padi. The experiment in a line: Insecticidal activity against adult Rhopalosiphum padi infested wheat plant assessed as reduction in xylem ingestion at 2 mg/l applied to the roots for 6 hr by electrical penetration graphical analysis relative to control. The class given is functional, organism-based.
Experiment [7] deals with Rhopalosiphum padi. The experiment in a line: Insecticidal activity against adult Rhopalosiphum padi infested wheat plant assessed as bout duration of phloem ingestion at 0.4 mg/l applied to the roots for 6 hr by electrical penetration graphical analysis (reference value: 277.2 +/- 30.8 min). The class given is functional.
Experiment [8] relates to Rhopalosiphum padi. The experiment in a line: Insecticidal activity against adult Rhopalosiphum padi infested wheat plant assessed as time taken for first phloem activity occurrence at 0.4 mg/l applied to the roots for 6 hr by electrical penetration graphical analysis (reference value: 141.9 +/- 18.1 min). The class given is functional.
Experiment [9] concerns Rhopalosiphum padi. Description: Insecticidal activity against adult Rhopalosiphum padi infested wheat plant assessed as reduction in xylem ingestion at 0.4 mg/l applied to the roots for 6 hr by electrical penetration graphical analysis relative to control. The class given is functional, organism-based.
Experiment [10] relates to Rhopalosiphum padi. The experiment in a line: Toxicity against first-instar nymph of Rhopalosiphum padi assessed as reduction in weight at 0.4 mg/l applied to roots measured after 7 days relative to control. The class given is functional, organism-based.
Experiment [11] concerns Rhopalosiphum padi. Description: Insecticidal activity against adult Rhopalosiphum padi infested wheat plant assessed as total time of salivation into sieve elements at 2 mg/l applied to the roots for 6 hr by electrical penetration graphical analysis (reference value: 35.4 +/- 6.8 secs). The class given is functional.
For experiment [12], the system named is Rhopalosiphum padi. The experiment in a line: Insecticidal activity against adult Rhopalosiphum padi infested wheat plant assessed as reduction in occurrences of phloem ingestion at 2 mg/l applied to the roots for 6 hr by electrical penetration graphical analysis relative to control. The class given is functional, organism-based.
For experiment [13], the system named is Rhopalosiphum padi. Description: Insecticidal activity against adult Rhopalosiphum padi infested wheat plant assessed as total time of xylem ingestion at 2 mg/l applied to the roots for 6 hr by electrical penetration graphical analysis (reference value: 23.1 +/- 4.5 min). The class given is functional.
Experiment [14] deals with Rhopalosiphum padi. The experiment in a line: Insecticidal activity against adult Rhopalosiphum padi infested wheat plant assessed as total time of phloem ingestion at 0.4 mg/l applied to the roots for 6 hr by electrical penetration graphical analysis (reference value: 296.4 +/- 39.3 min). The class given is functional.
The test system of experiment [15] is Rhopalosiphum padi. Description: Insecticidal activity against adult Rhopalosiphum padi infested wheat plant assessed as time taken for first xylem ingestion occurrence at 0.4 mg/l applied to the roots for 6 hr by electrical penetration graphical analysis (reference value: 145.5 +/- 27.1 min). The class given is functional.
In experiment [16] the test system is Rhopalosiphum padi. The experiment in a line: Insecticidal activity against adult Rhopalosiphum padi infested wheat plant assessed as bout duration of xylem ingestion at 0.4 mg/l applied to the roots for 6 hr by electrical penetration graphical analysis (reference value: 20.4 +/- 4.5 min). The class given is functional.
Experiment [17] has as its system Rhopalosiphum padi. The experiment in a line: Insecticidal activity against adult Rhopalosiphum padi infested wheat plant assessed as frequency of xylem ingestion at 0.4 mg/l applied to the roots for 6 hr by electrical penetration graphical analysis (reference value: 8.2 +/- 0.3 Hz). The class given is functional.
Experiment [18] relates to Rhopalosiphum padi. Description: Insecticidal activity against adult Rhopalosiphum padi infested wheat plant assessed as bout duration of xylem ingestion at 2 mg/l applied to the roots for 6 hr by electrical penetration graphical analysis (reference value: 20.4 +/- 4.5 min). The class given is functional.
Experiment [19] deals with Rhopalosiphum padi. The experiment in a line: Insecticidal activity against adult Rhopalosiphum padi infested wheat plant assessed as reduction in occurrences of salivation into sieve elements at 0.4 mg/l applied to the roots for 6 hr by electrical penetration graphical analysis relative to control. The class given is functional, organism-based.
Experiment [20] has as its system Rhopalosiphum padi. The experiment in a line: Insecticidal activity against adult Rhopalosiphum padi infested wheat plant assessed as bout duration of salivation into sieve elements at 0.4 mg/l applied to the roots for 6 hr by electrical penetration graphical analysis (reference value: 32.4 +/- 3 secs). The class given is functional.
In experiment [21] the test system is Rhopalosiphum padi. The experiment in a line: Toxicity against Rhopalosiphum padi infested wheat plant applied to the roots measured after 24 hr. The class given is functional.
In experiment [22] the test system is Rhopalosiphum padi. The experiment in a line: Insecticidal activity against adult Rhopalosiphum padi infested wheat plant assessed as frequency of phloem ingestion at 0.4 mg/l applied to the roots for 6 hr by electrical penetration graphical analysis (reference value: 2.85 +/- 0.18 Hz). The class given is functional.
Experiment [23] relates to Rhopalosiphum padi. The experiment in a line: Insecticidal activity against adult Rhopalosiphum padi infested wheat plant assessed as reduction in occurrences of salivation into sieve elements at 2 mg/l applied to the roots for 6 hr by electrical penetration graphical analysis relative to control. The class given is functional, organism-based.
The test system of experiment [24] is Rhopalosiphum padi. Description: Insecticidal activity against adult Rhopalosiphum padi infested wheat plant assessed as total time of xylem ingestion at 0.4 mg/l applied to the roots for 6 hr by electrical penetration graphical analysis (reference value: 23.1 +/- 4.5 min). The class given is functional.
In experiment [25] the test system is Rhopalosiphum padi. The experiment in a line: Toxicity against Rhopalosiphum padi infested wheat plant applied to the roots measured after 48 hr. The class given is functional.
Experiment [26] has as its system Rhopalosiphum padi. The experiment in a line: Insecticidal activity against adult Rhopalosiphum padi infested wheat plant assessed as reduction in occurrences of phloem ingestion at 0.4 mg/l applied to the roots for 6 hr by electrical penetration graphical analysis relative to control. The class given is functional, organism-based.
For experiment [27], the system named is Rhopalosiphum padi. Description: Insecticidal activity against adult Rhopalosiphum padi infested wheat plant assessed as bout duration of phloem ingestion at 2 mg/l applied to the roots for 6 hr by electrical penetration graphical analysis (reference value: 277.2 +/- 30.8 min). The class given is functional.
Experiment [28] deals with Rhopalosiphum padi. Description: Insecticidal activity against adult Rhopalosiphum padi infested wheat plant assessed as bout duration of salivation into sieve elements at 2 mg/l applied to the roots for 6 hr by electrical penetration graphical analysis (reference value: 32.4 +/- 3 secs). The class given is functional.
Experiment [29] relates to Rhopalosiphum padi. Description: Insecticidal activity against adult Rhopalosiphum padi infested wheat plant assessed as total time of phloem ingestion at 2 mg/l applied to the roots for 6 hr by electrical penetration graphical analysis (reference value: 296.4 +/- 39.3 min). The class given is functional.
The subject of experiment [30] is Rhopalosiphum padi. The experiment in a line: Toxicity against first-instar nymph of Rhopalosiphum padi assessed as reduction in reproductive rate at 0.4 mg/l applied to roots measured after 16 days relative to control. The class given is functional, organism-based.
Experiment [31] deals with Rhopalosiphum padi. The experiment in a line: Insecticidal activity against adult Rhopalosiphum padi infested wheat plant assessed as total time of salivation into sieve elements at 0.4 mg/l applied to the roots for 6 hr by electrical penetration graphical analysis (reference value: 35.4 +/- 6.8 secs). The class given is functional.
Experiment [32] deals with Rhopalosiphum padi. The experiment in a line: Toxicity against first-instar nymph of Rhopalosiphum padi assessed as time until reproductive maturity at 0.4 mg/l applied to roots (reference value: 6.6 +/- 0.52 days). The class given is functional.

Experimental findings from ChEMBL document CHEMBL3046903, “Systemic action of novel neonicotinoid insecticide IPP-10 and its effect on the feeding behaviour of Rhopalosiphum padi on wheat” (2010) are described below.

Molecules are shown by their SMILES. Converted amounts (≈) assume the structure as drawn. The source made the active and inactive calls. The calls are words filed in the database; no cut-off is given here.

Regarding `O=[N+]([O-])/N=C1\NCCN1Cc1ccc(Cl)nc1` [IMIDACLOPRID], the LC50 in the experiment with Rhopalosiphum padi [1] was 0.9 µg/mL (≈ 3.52 µM). Moreover, the Activity with Rhopalosiphum padi [2] is 6.7%; in the experiment with Rhopalosiphum padi [3] it was 3.5%; with Rhopalosiphum padi [4] it was 3.1%; with Rhopalosiphum padi [5], 7.1%.
For `CC1CC(O)N2CCN(Cc3ccc(Cl)nc3)C2=C1[N+](=O)[O-]` (centres undefined), the outcome in the experiment on Rhopalosiphum padi [6], in the experiment with Rhopalosiphum padi [10], in the experiment on Rhopalosiphum padi [12], in the experiment with Rhopalosiphum padi [23] and in the experiment on Rhopalosiphum padi [30] was Active. Besides, the Time in the experiment on Rhopalosiphum padi [7] was 206.8 min; in the experiment with Rhopalosiphum padi [8], 139.8 min; with Rhopalosiphum padi [11], 0 s; in the experiment on Rhopalosiphum padi [13], 0 min; in the experiment with Rhopalosiphum padi [14], 218.8 min; in the experiment with Rhopalosiphum padi [15] it was 141.5 min. In addition, the Time in the experiment on Rhopalosiphum padi [16] worked out at 9.7 min; with Rhopalosiphum padi [18] it was 0 min; in the experiment with Rhopalosiphum padi [20], 59.5 s; in the experiment with Rhopalosiphum padi [24] it was 10.4 min; with Rhopalosiphum padi [27], 0 min; in the experiment on Rhopalosiphum padi [28], 0 s. Besides, the values for the Time in the experiment on Rhopalosiphum padi [29], in the experiment on Rhopalosiphum padi [31] and in the experiment on Rhopalosiphum padi [32] were 0 min, 64.3 s and 8.39 days, respectively. In addition, the result with Rhopalosiphum padi [9], with Rhopalosiphum padi [19] and with Rhopalosiphum padi [26] was inactive. Besides, the 50% lethal concentration (LC50) in the experiment with Rhopalosiphum padi [1] came out at 2.45 µg/mL (≈ 7.54 µM); in the experiment with Rhopalosiphum padi [21] (Rhopalosiphum padi, 24 h) it was 23.4 µg/mL (≈ 72.1 µM); with Rhopalosiphum padi [25] (Rhopalosiphum padi, 48 h), 2.4 µg/mL (≈ 7.39 µM). Further, the Activity in the experiment with Rhopalosiphum padi [17] turned out to be 7.03 Hz; in the experiment with Rhopalosiphum padi [2] it was 33.2%; in the experiment on Rhopalosiphum padi [3], 18.4%; in the experiment with Rhopalosiphum padi [4] it was 14.3%; in the experiment with Rhopalosiphum padi [22], 1.96 Hz; in the experiment on Rhopalosiphum padi [5], 59.9%. In addition, the LC15 with Rhopalosiphum padi [21] is 0.4 µg/mL (≈ 1.23 µM); with Rhopalosiphum padi [25], 0.09 µg/mL (≈ 0.277 µM).

As usually defined, the LC50 is the concentration that kills 50% of the test population. A higher LC50 goes with a less lethal substance.
